Data taken from publication PMC11864979, “First-in-class ultralong-target-residence-time p38α inhibitors as a mitosis-targeted therapy for colorectal cancer” (Nature Cancer, 2025).
pIC50: −log10 of the molar value. Values joined by “and” are separate entries in the source; they are usually repeats but may differ in a detail not shown here. Equal entries are not always repeated. Where two headings read alike, the source gives them in different places.

Key:
p38α = p38α (Homo sapiens, UniProt Q16539); test: p38α inhibition on isolated enzyme (ELISA, ATF2 substrate); assay type: biochemical; settings: Fig. 2d; replicates
Sequence of p38α (Q16539 whole entry): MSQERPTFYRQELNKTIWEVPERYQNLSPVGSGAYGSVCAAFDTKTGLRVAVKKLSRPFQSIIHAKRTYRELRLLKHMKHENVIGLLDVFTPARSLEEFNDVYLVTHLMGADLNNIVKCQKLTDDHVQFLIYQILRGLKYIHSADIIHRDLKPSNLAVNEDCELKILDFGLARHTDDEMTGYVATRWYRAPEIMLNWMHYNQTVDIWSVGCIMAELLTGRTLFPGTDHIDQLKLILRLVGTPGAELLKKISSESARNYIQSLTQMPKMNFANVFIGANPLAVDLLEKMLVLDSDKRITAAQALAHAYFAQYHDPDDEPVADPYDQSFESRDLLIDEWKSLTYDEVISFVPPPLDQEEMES
Procedure: For evaluating p38α inhibition on isolated enzyme, an ELISA assay was performed[57]. […] Compounds were dissolved in DMSO (10 mM) and diluted (0.01–10 µM) in a kinase buffer containing 12 ng per 50 µl p38α protein (provided by J. Schultz, University of Tübingen), 50 mM Tris pH 7.5, 10 mM MgCl2, 10 mM β-glycerophosphate, 100 µg ml^−1 BSA, 1 mM dithiothreitol, 0.1 mM Na3VO4 and 100 µM ATP. Then, 50 µl of each sample was pipetted into the corresponding wells and incubated for 1 h at 37 °C. […] Finally, 50 µl of TMB substrate (BD Bioscience) was added to the wells. After 5 min, the reaction was stopped by adding 25 µl of 1 N HCl and the samples were measured photometrically at 450 nm with an ELISA reader (Molecular Devices, FilterMax F5) using SOFTmax PRO software (version 6.5.1).

KAP organoids = test: cell viability in KAP organoids (CellTiter-Glo); assay type: cell-based, mouse; settings: for induction of cell death in KAP organoids (in words): viability assay
Procedure: For in vitro treatment studies, organoids were mechanically dissociated and digested using TrypLE supplemented with 100 µg ml^−1 DNaseI and 10.5 µM Y-27632 dihydrochloride (Invitrogen) at 37 °C. A total of 1,000–2,000 single cells were plated per well in white 96-well plates (Greiner) in culture medium containing 10% GFR Matrigel or Cultrex BME. The treatment with doxycycline (5 µg ml^−1), pharmacological inhibitors or corresponding volumes of DMSO was started 24 h after plating. Doxycycline was obtained from Sigma-Aldrich. […] Cell viability was measured by means of CellTiter-Glo 3D or CellTiter-Glo 2.0 reagent (Promega) according to the manufacturers’ instructions and the Infinite M Plex reader (Tecan, i-control version 3.9.1 software). Results were normalized to vehicle (DMSO) or to shNC. For cell-doubling assays, the cell number was quantified at the corresponding time points using Guava EasyCyte flow cytometer (Luminex, CytoSoft v5.2 software).

[1] = cell viability after 2015, Navitoclax or 2015 + Navitoclax (Fig. 5f); assay type: cell-based; parameters: concentration or dose not given beside the values; settings: replicates
subcutaneous KAP CRCs = test: treatment of subcutaneous KAP tumors in wild-type mice; assay type: in vivo, mouse; settings: 6 d of treatment; single tumors; Fig. 5i
Procedure: Subcutaneous injection, splenic seeding or cecum injection of organoids was performed in 8–10-week-old C57BL/6 N/Crl, Rag2^−/− (B6.Cg-Rag2^tm1.1Cgn/J), or CB17 Scid beige (CB17.Cg-Prkdc^scidLyst^bg-J/Crl) mice, obtained from Charles River. The organoids were dissociated into single cells, washed with PBS and injected in a 1:1 mixture of PBS and Matrigel. For murine organoids, 1 × 10^5 cells were injected into the left and right flanks or the spleen capsule and 2 × 10^6 cells were injected into the cecum wall. For human organoids, 4 × 10^5 cells were injected into the flanks of CB17 Scid beige mice. For splenic seeding and cecum injection, mice were anaesthetized using ketamine (100 mg kg^−1, intraperitoneally) and xylazin (10 mg/kg, intraperitoneally) in NaCl and a small laparotomy below the thorax was performed.
No mice were excluded during treatment studies.

[2] = Mus musculus, 24 h, read-out: Cell viability (%), Fig. 1d, replicates

Compound | viability at 10 µM (KAP organoids; [2]) [%] | induction of cell death in KAP organoids (in words) (KAP organoids) | also measured
CC(C)(C)Cn1c(N)nc2ccc(-c3[nH]c(C(C)(C)C)nc3-c3ccc(F)cc3)nc21 [LY222820] | – | – | pIC50 (p38α): 8.11 and 8.37 and 7.96
CNC(=O)c1ccc(C)c(-n2c(C)cc(OCc3ccc(F)cc3F)c(Br)c2=O)c1 [PH797804] | 84.1 | – | viability at 1 µM (KAP organoids; Mus musculus, 24 h, read-out: Cell viability (%), Fig. 1d, 1 µM, replicates): 92.1%; viability at 1 µM (KAP organoids; Mus musculus, read-out: Cell viability (% of DMSO), drug screen in KAP organoids, 1 µM concentration, n = 3, mean): 86.2%
CNC(=O)c1ccc(C)c(-n2c(C)cc(OCc3ccc(F)cc3F)c(Br)c2=O)c1 [PH-797804, reference compound] | – | only a very weak induction of cell death | –
Cc1ccc(-n2nc(C(C)(C)C)cc2NC(=O)Nc2ccc(OCCN3CCOCC3)c3ccccc23)cc1 [BIRB-796, reference compound] | – | failed to inhibit p38α downstream signaling and induce cell death | –
CC(C)(C)Cn1c(N)nc2ccc(-c3[nH]c(C(C)(C)C)nc3-c3ccc(F)cc3)nc21 [LY2228820, ralimetinib, reference compound] | 77.8 | only a very weak induction of cell death | viability at 5 µM (KAP organoids; Mus musculus, 24 h, read-out: Cell viability (%), Fig. 1d, 5 µM, replicates): 93.3%
CC1(C)CCC(c2ccc(Cl)cc2)=C(CN2CCN(c3ccc(C(=O)NS(=O)(=O)c4ccc(N[C@H](CCN5CCOCC5)CSc5ccccc5)c(S(=O)(=O)C(F)(F)F)c4)cc3)CC2)C1 [navitoclax, reference compound] | – | no therapeutic response | Cell viability [1]: 100.49% and 78.37% and 85.69%; Tumor volume (subcutaneous KAP CRCs): 87.5 mm³ and 126.0 mm³ and 144.0 mm³ and 112.5 mm³ and 100.0 mm³
